How the values were obtained:
Type in all cases: physicochemical
[1] = Specific surface area of the powder, multipoint BET method
Procedure: A specific surface area of a powder of the compound A obtained by the above-described methods and the following Examples can be measured by known method, for example, multipoint BET method.
A specific surface area of the compound A was adjusted to give the crystalline powders with different specific surface area by the following method. As well, the measurement of specific surface area was performed by multipoint BET method.

[2] = Accelerated test (storage stability: purity by HPLC, degree of moisture by Karl Fisher); details: for Degree of moisture (%) / Purity (%): crushing composition
Procedure: 1 g of the powder of compound A was poured into the two-lay plastic bag and closed firmly with banding band. This was poured into miniature fiber dram and then this was preserved in the stability tester under the condition for 6 months, at 40° C., at 75% relative humidity. And then, the purity (quantitative value) and the degree of moisture (%) of the powder of compound A were measured. The measurement of the degree of moisture was performed by known method: the moisture vaporization method/Karl Fisher electrometrical titration method. The measurement of purity was performed by high performance liquid chromatography (HPLC).
About 0.04 mg/mL N,N-dimethylformamide/acetontirile (3/7) solution of reference material and measurement sample of compound A was prepared. In this case, the concentration of the solutions was precisely found. These solutions was set under the below test condition and the purity of measurement sample was calculated from the obtained area value of the peak.
• The detector: ultraviolet absorptiometer (measurement wavelength: 278 nm), • The column: YMC-Pack ODS-A-302 (inside diameter 4.6 mm, length 15 cm), • The mobile phase: acetonitrile/5 mmol/L sodium acetate buffer (It was prepared to pH 4.5 using acetate.)/2-propanol mixture (5/4/1), • The flow: The retention time of the compound A was prepared to be about 12 minutes (about 1.0 mL/min), • The column temperature: the constant temperature in the vicinity of 40° C. • The injection volume: 20 μL.

[3] = Measurement of bulk density
Procedure: A bulk density of a powder of the compound A is preferably in the range of about 0.05 to about 0.3 g/cm^3, and more preferably in the range of about 0.05 to about 0.2 g/cm^3. A bulk density can be measured by known method. It includes, for example, the method that about 3 g sample is precisely weighed, it is put into dried 50 mL graduated cylinder (scale: by 0.1 mL) without consolidation, it reads to minimum unit of scale and value that the weight (g) of particulate is divided by the volume (cm^3) of particulate is assumed bulk density (g/cm^3), and method described in the following Examples and so on.
About 3 g of compound A is precisely weighed, it is put into dried 50 mL graduated cylinder (scale: by 0.1 mL) without consolidation, it reads to minimum unit of scale. The value that the weight (g) of particulate is divided by the volume (cm^3) of particulate is assumed bulk density (g/cm^3). As a result, the bulk density of the powder of compound A prepared in Adjustment Example 4(3) was 0.18 g/cm^3 (non-crushing composition) and […] (crushing composition). The bulk density of compound A prepared in Adjustment Example 4(4) was 0.18 g/cm^3 (non-crushing composition) and 0.08 g/cm^3 (crushing composition).

[4] = Measurement of tap density; details: tapped 3 minutes at 60 times/minute
Procedure: A tap density of a powder of the compound A is preferably in the range of about 0.1 to about 0.4 g/cm^3, and more preferably in the range of about 0.1 to about 0.3 g/cm^3. A tap density can be measured by known method. It includes, for example, the method that about 3 g sample is precisely weighed, it is put into dried 50 mL graduated cylinder (scale: by 0.1 mL) without consolidation, the graduated cylinder is set on tapping machine for tap density, then it is tapped for 3 minutes at 60 times/minute, final tap density is found, and value that the weight (g) of particulate is divided by final tap density (cm^3) of particulate is assumed tap density (g/cm^3), and method described in the following Examples and so on.
About 3 g of the powder of compound A is precisely weighed, it is put into dried 50 mL graduated cylinder (scale: by 0.1 mL) without consolidation, the graduated cylinder is set on tapping machine for tap density, then it is tapped for 3 minutes at 60 times/minute, final tap density is found. The value that the weight (g) of particulate is divided by final bulk density (cm^3) of particulate is assumed tap density (g/cm^3). As a result, the tap density of the powder of compound A prepared in Adjustment Example 4(3) was 0.28 g/cm^3 (non-crushing composition) and 0.13 g/cm^3 (crushing composition). The tap density of tie powder of compound A prepared in Adjustment Example 4(4) was 0.23 g/cm^3 (non-crushing composition) and 0.16 g/cm^3 (crushing composition).[

[5] = 6 months at 40°C, 75% relative humidity
[6] = over 6 months at 40°C, 75% relative humidity

With `Cc1ccc(-c2nc(CCOc3cccc4c3CCC=C4CCC(=O)O)c(C)o2)cc1` [Adjustment Example 4(4), 3-(5-{2-[5-methyl-2-(4-methylphenyl)-1,3-oxazol-4-yl]ethoxy}-3,4-dihydronaphthalen-1-yl)propanoic acid] the specific surface area ([1]; crushing composition (jet mill crushed)) was 13.4 m^2/g, the specific surface area ([1]; non-crushing composition) was 11.2 m^2/g and the “Degree of moisture (%)” value ([2]; 0 month) was 0.1%. For the same molecule, the “Purity (%)” value ([2]; 0 month) was 98.5%, the long-term storage stability [2, 5] was “stable in long-term storage” and the “Degree of moisture (%)” value [2, 5] was 0.1%. For the same molecule, the “Purity (%)” value [2, 5] was 98.2%, the “change (increase) of degree of moisture” value [2, 6] was “no change” and the decrease of purity [2, 6] was 0.3%. It also gave a bulk density ([3]; crushing composition) of 0.08 g/mL, a bulk density ([3]; non-crushing composition) of 0.18 g/mL and a tap density ([4]; crushing composition) of 0.16 g/mL. The tap density ([4]; non-crushing composition) was 0.23 g/mL.

Source: US20080026067A1, “Method for Increasing Specific Surface Area of Slightly Soluble Drug” (priority 2004, published 2008)
